Reference: US20110105408A1, “THERAPEUTIC PEPTIDES” (INTER-K PTY LIMITED, priority 2008, published 2011)
“Also recorded” adds a separate entry of the source.

What was measured:
HT29 colon cancer cells = experiment: Cell proliferation (MTT) assay, HT29 cells; type: cell-based, human
Experimental: Single cell suspensions of viable trypsinised cells were seeded into 96-well tissue culture plates at a density of 2×10^3 cells per well in a volume of 100 μl of a suitable culture media with foetal calf serum (FCS) (e.g., Dulbecco's Modified Eagles Medium (DMEM), with 10% v/v FCS, glutamine, Hepes, and antibiotics). A set of triplicate wells was prepared for each concentration of the peptide dendrimer being tested. Additional sample wells containing untreated cells or media alone were set up in each treatment plate and processed in parallel as reference controls. A zero-time plate of untreated cells and media-alone wells was simultaneously prepared and an MTT assay carried out on this plate at the time of test peptide dendrimer addition to treatment plates. All plates were cultured for 24 hours before addition of the test dendrimer. To prepare the MTT solution 100 mg of MTT (3-(4,5-dimethylthiazolyl-2)-2,5-diphenyltetrazolium bromide) (Cat #. M-128, Sigma, St Louis Mo.), is mixed with 20 ml of PBS at pH 7.4. The resulting solution is filter sterilized (0.2 μM syringe filter) and stored at 4° C. protected from light until use. MTT substrate is cleaved in growing cells to yield a water insoluble salt. After solubilisation of the salt crystals, a coloured product is produced the measurement of which allows quantitation of the proliferative activity of the cultured cells.
Appropriate concentrations of the test dendrimer were prepared by dilution of freshly prepared sterile 1 mM stock solutions into cell culture media to give a final well volume of 200 μl containing 10% v/v FCS. The zero-plate was processed by addition of MTT at this time. Cell culture was continued for a further 24 or 48 hours before addition of 20 μl of MTT in PBS (5 mg/ml, 0.2 um filter sterilised). The MTT cell proliferation assay measures cell proliferation rate and, in instances where cell viability is compromised, the assay indicates a comparative reduction in cell viability. After a 3 hour incubation in the presence of MTT (5% CO2 in air at 37° C.), plates were centifuged at 450 g for 5 minutes, supernatant removed by gentle suction and precipitated tetrazolium salt resuspended into 150 μl DMSO:glycine (0.1 M glycine, 0.1 M NaCl pH 10.5) (6:1 v/v) solution. Plates were gently vortexed to complete solubilisation of crystalline material and absorbance was read at 540-550 nm using a microplate reader. Sample data were processed to determine the comparative growth of treated samples relative to untreated controls.
HT29 cells were cultured for 48 hours in the presence of selected dendrimers and proliferation of the cells was assessed by MTT assay essentially as described in Example 1.2. The results were calculated as percentage proliferation of control cells (not treated with dendrimer).

[1] = system: HT29 human colorectal adenocarcinoma tumour; experiment: Inhibition of HT29 tumour growth in a mouse model, intra-tumoural injection; type: in vivo, Mouse (Mus musculus) BALB/c nu/nu; conditions: for Tumour volume, Delta avg: change in volume from day 0
Experimental: HT29 human colorectal adenocarcinoma cells were cultured in RPMI 1640 cell culture medium supplemented with 10% v/v FCS and 50 IU/mL penicillin-streptomycin. The cells were harvested by trypsinisation, washed twice in HBSS and counted. The cells were then resuspended in HBSS to a final concentration of 2×10^7 cells/mL.
• Species: Mouse (Mus musculus) • Strain: BALB/c nu/nu • Source: University of Adelaide (Waite Campus, Urrbrae, SA, Australia) • Total number of animals in study: 20 females • Number of study groups: 2 (1 test, 1 control) • Number of mice per group: 10 • Body weight range: 20.61-25.27 g at onset of treatment (mean 22.27 g) • Age range: 10-12 weeks at onset of treatment.
Prior to inoculation the skin on the injection site (dorsal right flank) was swabbed with alcohol. The needle was introduced through the skin into the subcutaneous space just below the animal's right shoulder, and 100 μL of cells (2×10^6 cells) were discharged. The treatment of mice began nine days after HT29 cell inoculation, the average tumour volume was 68 mm^3 (average variability of 6.1%).
Body weight and tumour dimensions (length and diameter) were measured for all animals on the first day of treatment (day 0) and then three times per week, including the termination day of the study (Day 24).
Mice were randomized, based on body weight, into two groups of ten mice on Day 0 of the study. The peptide dendrimer IK248B presenting 10 monomer units of the peptide RSKAKNPLYR (SEQ ID No. 6) (see Example 8) was used in this study. The vehicle control (phosphate buffered saline (PBS)) and IK248B dendrimer (20 mg/kg) were each administered by intra-tumoural injection once daily for five consecutive days, beginning on Day 0.
The vehicle control and IK248B dendrimer were administered at a dosing volume of 4.762 mL/kg (100 μL) based on a 21 g mouse. Each animal's body weight was measured immediately prior to dosing. The volume of dosing solution administered to each mouse was calculated and adjusted based on individual body weight.
Tumours were excised from all mice post mortem and weighed. Tumour volume was calculated using the equation:
V(mm^3)=length×diameter^2×p/6
ΔT/ΔC(%) was calculated using the following equation:
ΔT/ΔC(%)=(ΔvolumeTreatment/ΔVolumeControl)×100
where Δ=change in volume from day 0 to the final measurement day or nominated day of interest.
All statistical calculations were performed using SigmaStat 3.0 (SPSS Australasia, North Sydney, NSW, Australia). A two-sample t-test was used to determine the significance in body weight change within a treatment group between day 0 and day 4, and between day 0 and the termination day of the study. A One-Way Analysis of Variance (ANOVA) was performed on tumour volumes measured in all mice at the end of the study. Where significant differences were found in the data, the All Pairwise Multiple Comparison Procedures (Holm-Sidak Method) were performed. A two-sample t-test was used to show a significant difference between the tumour weight data for the vehicle control and Dend 10 10(4) treatment groups. A p value of less than 0.05 was considered significant.

For `CC(C)C[C@H](NC(=O)[C@@H]1CCCN1C(=O)[C@H](CC(N)=O)NC(=O)[C@H](CCCCN)NC(=O)[C@H](C)NC(=O)[C@H](CCCCN)NC(=O)[C@H](CO)NC(=O)[C@@H](N)CCCNC(=N)N)C(=O)N[C@@H](Cc1ccc(O)cc1)C(=O)N[C@@H](CCCNC(=N)N)C(=O)NCCCC[C@H](NC(=O)[C@H](CCCCNC(=O)[C@H](CCCCNC(=O)[C@H](CCCNC(=N)N)NC(=O)[C@H](Cc1ccc(O)cc1)NC(=O)[C@H](CC(C)C)NC(=O)[C@@H]1CCCN1C(=O)[C@H](CC(N)=O)NC(=O)[C@H](CCCCN)NC(=O)[C@H](C)NC(=O)[C@H](CCCCN)NC(=O)[C@H](CO)NC(=O)[C@@H](N)CCCNC(=N)N)NC(=O)[C@H](CCCNC(=N)N)NC(=O)[C@H](Cc1ccc(O)cc1)NC(=O)[C@H](CC(C)C)NC(=O)[C@@H]1CCCN1C(=O)[C@H](CC(N)=O)NC(=O)[C@H](CCCCN)NC(=O)[C@H](C)NC(=O)[C@H](CCCCN)NC(=O)[C@H](CO)NC(=O)[C@@H](N)CCCNC(=N)N)NC(=O)[C@H](CCCCNC(=O)[C@H](CCCNC(=N)N)NC(=O)[C@H](Cc1ccc(O)cc1)NC(=O)[C@H](CC(C)C)NC(=O)[C@@H]1CCCN1C(=O)[C@H](CC(N)=O)NC(=O)[C@H](CCCCN)NC(=O)[C@H](C)NC(=O)[C@H](CCCCN)NC(=O)[C@H](CO)NC(=O)[C@@H](N)CCCNC(=N)N)NC(=O)[C@H](CCCNC(=N)N)NC(=O)[C@H](Cc1ccc(O)cc1)NC(=O)[C@H](CC(C)C)NC(=O)[C@@H]1CCCN1C(=O)[C@H](CC(N)=O)NC(=O)[C@H](CCCCN)NC(=O)[C@H](C)NC(=O)[C@H](CCCCN)NC(=O)[C@H](CO)NC(=O)[C@@H](N)CCCNC(=N)N)C(=O)NCCCC[C@H](NC(=O)[C@H](CCCCNC(=O)[C@H](CCCNC(=N)N)NC(=O)[C@H](Cc1ccc(O)cc1)NC(=O)[C@H](CC(C)C)NC(=O)[C@@H]1CCCN1C(=O)[C@H](CC(N)=O)NC(=O)[C@H](CCCCN)NC(=O)[C@H](C)NC(=O)[C@H](CCCCN)NC(=O)[C@H](CO)NC(=O)[C@@H](N)CCCNC(=N)N)NC(=O)[C@H](CCCCNC(=O)[C@H](CCCCNC(=O)[C@H](CCCNC(=N)N)NC(=O)[C@H](Cc1ccc(O)cc1)NC(=O)[C@H](CC(C)C)NC(=O)[C@@H]1CCCN1C(=O)[C@H](CC(N)=O)NC(=O)[C@H](CCCCN)NC(=O)[C@H](C)NC(=O)[C@H](CCCCN)NC(=O)[C@H](CO)NC(=O)[C@@H](N)CCCNC(=N)N)NC(=O)[C@H](CCCNC(=N)N)NC(=O)[C@H](Cc1ccc(O)cc1)NC(=O)[C@H](CC(C)C)NC(=O)[C@@H]1CCCN1C(=O)[C@H](CC(N)=O)NC(=O)[C@H](CCCCN)NC(=O)[C@H](C)NC(=O)[C@H](CCCCN)NC(=O)[C@H](CO)NC(=O)[C@@H](N)CCCNC(=N)N)NC(=O)[C@H](CCCCNC(=O)[C@H](CCCNC(=N)N)NC(=O)[C@H](Cc1ccc(O)cc1)NC(=O)[C@H](CC(C)C)NC(=O)[C@@H]1CCCN1C(=O)[C@H](CC(N)=O)NC(=O)[C@H](CCCCN)NC(=O)[C@H](C)NC(=O)[C@H](CCCCN)NC(=O)[C@H](CO)NC(=O)[C@@H](N)CCCNC(=N)N)NC(=O)[C@H](CCCNC(=N)N)NC(=O)[C@H](Cc1ccc(O)cc1)NC(=O)[C@H](CC(C)C)NC(=O)[C@@H]1CCCN1C(=O)[C@H](CC(N)=O)NC(=O)[C@H](CCCCN)NC(=O)[C@H](C)NC(=O)[C@H](CCCCN)NC(=O)[C@H](CO)NC(=O)[C@@H](N)CCCNC(=N)N)C(=O)NCCC(N)=O` [IK248B], the “inhibition of proliferation of HT29 cells (MTT)” value (HT29 colon cancer cells; 48 hours culture with dendrimer) was “proliferation of the cells was inhibited; also recorded: more effective than dendrimer IK248”, the “dendrimer concentration required for total kill” value (HT29 colon cancer cells; HT29 cells, 48 hours, MTT) was 10 µM and the “tumour growth compared to vehicle only control” value ([1]; 20 mg/kg intra-tumoural once daily for five days) was “markedly inhibited”. The “average tumour weight at the end of the study” value ([1]; 20 mg/kg intra-tumoural once daily for five days, Day 24, control 0.962 g) was 0.437 g, the “dT/dC [%]” value ([1]; Day 0) was 100.0% and the “Tumour volume, Delta avg” value ([1]; Day 0) was 0.0 mm^3. For the same compound, the “Tumour volume, Average” value ([1]; Day 0 post-initial treatment) was 68.0 mm^3, the “dT/dC [%]” value ([1]; Day 2) was 134.3% and the “Tumour volume, Delta avg” value ([1]; Day 2) was 68.6 mm^3. For the same compound, the “Tumour volume, Average” value ([1]; Day 2 post-initial treatment) was 136.6 mm^3, the “dT/dC [%]” value ([1]; Day 4) was 102.0% and the “Tumour volume, Delta avg” value ([1]; Day 4) was 144.0 mm^3. For the same compound, the “Tumour volume, Average” value ([1]; Day 4 post-initial treatment) was 211.9 mm^3, the “dT/dC [%]” value ([1]; Day 7) was 68.1% and the “Tumour volume, Delta avg” value ([1]; Day 7) was 180.6 mm^3. The “Tumour volume, Average” value ([1]; Day 7 post-initial treatment) was 248.6 mm^3, the “dT/dC [%]” value ([1]; Day 11) was 58.0% and the “Tumour volume, Delta avg” value ([1]; Day 11) was 232.9 mm^3. The “Tumour volume, Average” value ([1]; Day 11 post-initial treatment) was 300.9 mm^3, the “dT/dC [%]” value ([1]; Day 14) was 44.6% and the “Tumour volume, Delta avg” value ([1]; Day 14) was 255.9 mm^3. For the same compound, the “Tumour volume, Average” value ([1]; Day 14 post-initial treatment) was 323.9 mm^3, the “dT/dC [%]” value ([1]; Day 16) was 45.2% and the “Tumour volume, Delta avg” value ([1]; Day 16) was 323.1 mm^3. The “Tumour volume, Average” value ([1]; Day 16 post-initial treatment) was 391.0 mm^3, the “dT/dC [%]” value ([1]; Day 18) was 47.1% and the “Tumour volume, Delta avg” value ([1]; Day 18) was 408.9 mm^3. The “Tumour volume, Average” value ([1]; Day 18 post-initial treatment) was 476.9 mm^3, the “dT/dC [%]” value ([1]; Day 21) was 55.7% and the “Tumour volume, Delta avg” value ([1]; Day 21) was 598.7 mm^3. For the same compound, the “Tumour volume, Average” value ([1]; Day 21 post-initial treatment) was 601.5 mm^3, the “dT/dC [%]” value ([1]; Day 24) was 54.5% and the “Tumour volume, Delta avg” value ([1]; Day 24) was 710.4 mm^3. The “Tumour volume, Average” value ([1]; Day 24 post-initial treatment) was 702.1 mm^3.
